Source: US20090156518A1, “STABLE PHARMACEUTICAL COMPOSITION COMPRISING BETA-LACTAM ANTIBIOTIC AND BUFFER” (priority 2006, published 2009)
One block for each compound: values may come before it.

Assay: amounts of β-lactam antibiotic, β-lactamase inhibitor (C18 reverse-phase LC, UV-VIS) and aminoglycoside (HPLC-ELSD) in solution over time
Assay type: physicochemical

amount of component as percentage with respect to the amount at the initial time (Example 5: freeze-dried cefoperazone sodium 4 g, sulbactam sodium 0.5 g, citrate pH 6.75, + amikacin sulfate 500 mg, 7 days 0° C., dissolved in 100 mL water, Time 0 h): 98.98% | amount of component as percentage with respect to the amount at the initial time (Example 5: freeze-dried cefoperazone sodium 4 g, sulbactam sodium 0.5 g, citrate pH 6.75, + amikacin sulfate 500 mg, 7 days 0° C., dissolved in 100 mL water, Time 1 h): 98.73% | amount of component as percentage with respect to the amount at the initial time (Example 5: freeze-dried cefoperazone sodium 4 g, sulbactam sodium 0.5 g, citrate pH 6.75, + amikacin sulfate 500 mg, 7 days 0° C., dissolved in 100 mL water, Time 2 h): 98.52% | amount of component as percentage with respect to the amount at the initial time (Example 5: freeze-dried cefoperazone sodium 4 g, sulbactam sodium 0.5 g, citrate pH 6.75, + amikacin sulfate 500 mg, 7 days 0° C., dissolved in 100 mL water, Time 4 h): 98.41% | amount of component as percentage with respect to the amount at the initial time (Example 5: freeze-dried cefoperazone sodium 4 g, sulbactam sodium 0.5 g, citrate pH 6.75, + amikacin sulfate 500 mg, 7 days 0° C., dissolved in 100 mL water, Time 6 h): 98.76% | amount of component as percentage with respect to the amount at the initial time (Example 17: freeze-dried cefoperazone sodium 4 g, sulbactam sodium 1 g, citrate pH 6.75, 7 days 0° C., in 100 mL water, 10 mL + amikacin sulfate 40 mg, room temperature, Time 0 h): 99.91% | amount of component as percentage with respect to the amount at the initial time (Example 17: freeze-dried cefoperazone sodium 4 g, sulbactam sodium 1 g, citrate pH 6.75, 7 days 0° C., in 100 mL water, 10 mL + amikacin sulfate 40 mg, room temperature, Time 1 h): 99.50% | amount of component as percentage with respect to the amount at the initial time (Example 17: freeze-dried cefoperazone sodium 4 g, sulbactam sodium 1 g, citrate pH 6.75, 7 days 0° C., in 100 mL water, 10 mL + amikacin sulfate 40 mg, room temperature, Time 2 h): 98.88% | amount of component as percentage with respect to the amount at the initial time (Example 17: freeze-dried cefoperazone sodium 4 g, sulbactam sodium 1 g, citrate pH 6.75, 7 days 0° C., in 100 mL water, 10 mL + amikacin sulfate 40 mg, room temperature, Time 4 h): 99.45% | amount of component as percentage with respect to the amount at the initial time (Example 17: freeze-dried cefoperazone sodium 4 g, sulbactam sodium 1 g, citrate pH 6.75, 7 days 0° C., in 100 mL water, 10 mL + amikacin sulfate 40 mg, room temperature, Time 6 h): 98.56% | amount of component as percentage with respect to the amount at the initial time (Example 17: freeze-dried cefoperazone sodium 4 g, sulbactam sodium 1 g, citrate pH 6.75, 7 days 0° C., in 100 mL water, 10 mL + amikacin sulfate 40 mg, room temperature, Time 8 h): 99.36%
SMILES: NCC[C@H](O)C(=O)N[C@@H]1C[C@H](N)[C@@H](O[C@H]2O[C@H](CN)[C@@H](O)[C@H](O)[C@H]2O)[C@H](O)[C@H]1O[C@H]1O[C@H](CO)[C@@H](O)[C@H](N)[C@H]1O.O=S(=O)(O)O.O=S(=O)(O)O [Amikacin sulfate, amikacin sulfate]

amount of component as percentage with respect to the amount at the initial time (Example 12: freeze-dried cefodizime sodium, citrate pH 6.75, 7 days 0° C., in 100 mL 5% fructose + etimicin sulfate 200 mg, Time 0 h): 99.01% | amount of component as percentage with respect to the amount at the initial time (Example 12: freeze-dried cefodizime sodium, citrate pH 6.75, 7 days 0° C., in 100 mL 5% fructose + etimicin sulfate 200 mg, Time 1 h): 103.8% | amount of component as percentage with respect to the amount at the initial time (Example 12: freeze-dried cefodizime sodium, citrate pH 6.75, 7 days 0° C., in 100 mL 5% fructose + etimicin sulfate 200 mg, Time 2 h): 98.33% | amount of component as percentage with respect to the amount at the initial time (Example 12: freeze-dried cefodizime sodium, citrate pH 6.75, 7 days 0° C., in 100 mL 5% fructose + etimicin sulfate 200 mg, Time 4 h): 98.99% | amount of component as percentage with respect to the amount at the initial time (Example 12: freeze-dried cefodizime sodium, citrate pH 6.75, 7 days 0° C., in 100 mL 5% fructose + etimicin sulfate 200 mg, Time 6 h): 97.89% | amount of component as percentage with respect to the amount at the initial time (Example 12: freeze-dried cefodizime sodium, citrate pH 6.75, 7 days 0° C., in 100 mL 5% fructose + etimicin sulfate 200 mg, Time 8 h): 92.52% | amount of component as percentage with respect to the amount at the initial time (Example 18: cefodizime sodium 1 g, etimicin sulfate 200 mg, citrate pH 6.75, 200 mL water, room temperature, Time 0 h): 99.01% | amount of component as percentage with respect to the amount at the initial time (Example 18: cefodizime sodium 1 g, etimicin sulfate 200 mg, citrate pH 6.75, 200 mL water, room temperature, Time 1 h): 103.8% | amount of component as percentage with respect to the amount at the initial time (Example 18: cefodizime sodium 1 g, etimicin sulfate 200 mg, citrate pH 6.75, 200 mL water, room temperature, Time 2 h): 98.33% | amount of component as percentage with respect to the amount at the initial time (Example 18: cefodizime sodium 1 g, etimicin sulfate 200 mg, citrate pH 6.75, 200 mL water, room temperature, Time 4 h): 98.99% | amount of component as percentage with respect to the amount at the initial time (Example 18: cefodizime sodium 1 g, etimicin sulfate 200 mg, citrate pH 6.75, 200 mL water, room temperature, Time 6 h): 97.89% | amount of component as percentage with respect to the amount at the initial time (Example 18: cefodizime sodium 1 g, etimicin sulfate 200 mg, citrate pH 6.75, 200 mL water, room temperature, Time 8 h): 92.52%
SMILES: CO/N=C(\C(=O)N[C@@H]1C(=O)N2C(C(=O)O)=C(CSc3nc(C)c(CC(=O)O)s3)CS[C@H]12)c1csc(N)n1 [Cefodizime sodium]
